Experimental findings from ChEMBL document CHEMBL1144373, “NMDA-NR2B subtype selectivity of stereoisomeric 2-(1,2,3,4-tetrahydro-1-isoquinolyl)ethanol derivatives” (Bioorg Med Chem Lett, 2005) are described below.

The target of experiment [1] is Glutamate [NMDA] receptor (Homo sapiens) (UniProt Q05586+Q12879+Q13224+O15399+O60391+Q14957+Q8TCU5). Put plainly: Specific binding of [3H]ifenprodil to N-methyl-D-aspartate (NMDA) glutamate receptor remaining in presence of 100 uM inhibitor. Format: protein-complex assay. The following applies: Sus scrofa.
Experiment [2] deals with Glutamate [NMDA] receptor. Put plainly: Mean inhibitory constant against porcine N-methyl-D-aspartate (NMDA) glutamate receptor; n=1. Format: protein-complex assay, Sus scrofa.
Experiment [3] can be described thus: Mean inhibitory concentration against rat N-methyl-D-aspartate (NMDA) glutamate receptor 1a/2D expressed in Xenopus oocytes. The settings on record: oocyte. The format is cell-based.
The target of experiment [4] is Glutamate [NMDA] receptor. The experiment can be described thus: Mean inhibitory concentration against [3H]MK-801 binding to porcine N-methyl-D-aspartate (NMDA) glutamate receptor; n=3. Format: protein-complex assay, Sus scrofa.
Experiment [5] deals with Glutamate [NMDA] receptor. The experiment can be described thus: Mean inhibitory concentration against [3H]ifenprodil binding to porcine N-methyl-D-aspartate (NMDA) glutamate receptor; n=3. The format is protein-complex assay, Sus scrofa.
The target in experiment [6] is Glutamate NMDA receptor; Grin1/Grin2b (Rattus norvegicus, UniProt P35439+Q00960). Put plainly: Mean inhibitory concentration against rat N-methyl-D-aspartate (NMDA) glutamate receptor 1a/2B expressed in Xenopus oocytes. Format: cell-based, Oocyte.
Experiment [7] has as its target Glutamate NMDA receptor; Grin1/Grin2a (Rattus norvegicus, UniProt P35439+Q00959). Put plainly: Mean inhibitory concentration against rat N-methyl-D-aspartate (NMDA) glutamate receptor 1a/2A expressed in Xenopus oocytes. The format is cell-based, Oocyte.
In experiment [8] the target is Glutamate NMDA receptor; Grin1/Grin2c (Rattus norvegicus, UniProt P35439+Q00961). Put plainly: Mean inhibitory concentration against rat N-methyl-D-aspartate (NMDA) glutamate receptor 1a/2C expressed in Xenopus oocytes. Format: cell-based, Oocyte.
Experiment [9] has as its target Glutamate [NMDA] receptor. Put plainly: Mean inhibitory constant against porcine N-methyl-D-aspartate (NMDA) glutamate receptor; n=3. The format is protein-complex assay, Sus scrofa.
The target of experiment [10] is Glutamate [NMDA] receptor. Put plainly: Mean inhibitory concentration against [3H]ifenprodil binding to porcine N-methyl-D-aspartate (NMDA) glutamate receptor; n=1. Format: protein-complex assay, Sus scrofa.

Sequence of Glutamate NMDA receptor; Grin1/Grin2b (Q00960 whole entry, other chains not shown): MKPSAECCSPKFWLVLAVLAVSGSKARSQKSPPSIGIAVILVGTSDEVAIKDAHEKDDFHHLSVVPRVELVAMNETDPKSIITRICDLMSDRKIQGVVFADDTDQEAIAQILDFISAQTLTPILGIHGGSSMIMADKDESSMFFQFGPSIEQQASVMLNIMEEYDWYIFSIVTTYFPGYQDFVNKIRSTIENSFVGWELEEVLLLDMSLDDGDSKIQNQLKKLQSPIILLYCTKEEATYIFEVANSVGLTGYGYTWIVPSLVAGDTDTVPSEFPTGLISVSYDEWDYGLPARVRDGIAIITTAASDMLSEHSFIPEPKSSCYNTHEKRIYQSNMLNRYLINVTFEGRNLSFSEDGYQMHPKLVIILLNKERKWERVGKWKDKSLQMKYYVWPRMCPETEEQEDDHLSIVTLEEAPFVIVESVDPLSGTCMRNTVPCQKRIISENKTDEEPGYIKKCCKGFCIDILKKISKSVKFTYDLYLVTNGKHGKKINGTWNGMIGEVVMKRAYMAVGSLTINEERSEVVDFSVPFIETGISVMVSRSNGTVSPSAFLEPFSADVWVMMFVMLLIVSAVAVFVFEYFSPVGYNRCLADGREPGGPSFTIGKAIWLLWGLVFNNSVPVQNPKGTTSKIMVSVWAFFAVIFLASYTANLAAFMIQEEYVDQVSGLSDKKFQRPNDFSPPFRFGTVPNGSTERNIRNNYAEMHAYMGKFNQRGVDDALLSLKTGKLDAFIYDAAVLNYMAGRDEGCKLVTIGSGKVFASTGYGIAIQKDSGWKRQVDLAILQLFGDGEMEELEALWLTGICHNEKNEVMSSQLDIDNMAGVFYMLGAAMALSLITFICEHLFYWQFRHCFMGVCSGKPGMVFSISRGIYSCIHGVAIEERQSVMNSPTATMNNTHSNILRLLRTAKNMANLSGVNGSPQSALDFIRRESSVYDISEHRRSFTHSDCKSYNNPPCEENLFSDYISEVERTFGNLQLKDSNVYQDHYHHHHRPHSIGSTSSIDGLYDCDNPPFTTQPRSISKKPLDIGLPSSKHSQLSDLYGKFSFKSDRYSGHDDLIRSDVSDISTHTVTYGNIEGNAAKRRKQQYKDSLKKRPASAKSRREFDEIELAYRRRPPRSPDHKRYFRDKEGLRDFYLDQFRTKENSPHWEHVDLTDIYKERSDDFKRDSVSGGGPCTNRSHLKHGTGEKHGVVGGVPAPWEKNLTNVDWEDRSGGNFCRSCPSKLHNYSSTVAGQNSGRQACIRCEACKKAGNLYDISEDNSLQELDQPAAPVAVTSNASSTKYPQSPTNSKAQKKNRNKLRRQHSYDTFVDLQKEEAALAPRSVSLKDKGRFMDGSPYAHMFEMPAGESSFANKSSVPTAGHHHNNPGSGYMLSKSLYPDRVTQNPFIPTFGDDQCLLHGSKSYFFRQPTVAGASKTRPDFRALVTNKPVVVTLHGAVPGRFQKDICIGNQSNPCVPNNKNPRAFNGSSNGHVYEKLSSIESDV
Sequence of Glutamate NMDA receptor; Grin1/Grin2c (Q00961 whole entry, other chains not shown): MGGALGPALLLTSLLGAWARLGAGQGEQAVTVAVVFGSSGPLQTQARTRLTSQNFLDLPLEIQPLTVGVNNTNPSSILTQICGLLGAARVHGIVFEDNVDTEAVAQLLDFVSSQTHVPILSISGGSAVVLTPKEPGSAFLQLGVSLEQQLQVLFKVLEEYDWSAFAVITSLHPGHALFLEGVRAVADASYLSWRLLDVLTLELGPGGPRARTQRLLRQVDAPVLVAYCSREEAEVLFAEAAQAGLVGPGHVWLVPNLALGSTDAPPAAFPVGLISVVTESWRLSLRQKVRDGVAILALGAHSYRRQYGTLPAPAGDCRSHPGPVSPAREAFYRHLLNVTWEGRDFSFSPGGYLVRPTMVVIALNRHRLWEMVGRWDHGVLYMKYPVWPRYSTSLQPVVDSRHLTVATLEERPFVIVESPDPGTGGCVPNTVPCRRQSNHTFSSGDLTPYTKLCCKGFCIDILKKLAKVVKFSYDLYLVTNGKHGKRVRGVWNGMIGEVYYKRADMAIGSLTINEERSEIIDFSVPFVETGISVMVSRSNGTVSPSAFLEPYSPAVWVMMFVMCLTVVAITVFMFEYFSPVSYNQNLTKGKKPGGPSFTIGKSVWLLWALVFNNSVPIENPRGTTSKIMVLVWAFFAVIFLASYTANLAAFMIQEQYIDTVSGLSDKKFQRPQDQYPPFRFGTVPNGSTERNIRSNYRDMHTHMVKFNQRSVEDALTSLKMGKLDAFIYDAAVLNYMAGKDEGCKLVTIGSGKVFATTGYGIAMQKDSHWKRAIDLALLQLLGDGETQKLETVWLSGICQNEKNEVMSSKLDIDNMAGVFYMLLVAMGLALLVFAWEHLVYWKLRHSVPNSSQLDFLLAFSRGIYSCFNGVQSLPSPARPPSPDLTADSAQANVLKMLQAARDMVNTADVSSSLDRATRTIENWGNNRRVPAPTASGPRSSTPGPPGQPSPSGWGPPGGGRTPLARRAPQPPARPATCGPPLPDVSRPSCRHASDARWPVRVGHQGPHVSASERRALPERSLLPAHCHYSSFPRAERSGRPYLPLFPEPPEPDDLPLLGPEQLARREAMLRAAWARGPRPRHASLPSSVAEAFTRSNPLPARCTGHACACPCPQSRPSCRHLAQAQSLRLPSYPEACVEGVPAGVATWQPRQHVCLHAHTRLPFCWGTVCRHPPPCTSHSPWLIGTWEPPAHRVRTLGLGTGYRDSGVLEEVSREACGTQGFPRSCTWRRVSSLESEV
Sequence of Glutamate NMDA receptor; Grin1/Grin2a (Q00959 whole entry, other chains not shown): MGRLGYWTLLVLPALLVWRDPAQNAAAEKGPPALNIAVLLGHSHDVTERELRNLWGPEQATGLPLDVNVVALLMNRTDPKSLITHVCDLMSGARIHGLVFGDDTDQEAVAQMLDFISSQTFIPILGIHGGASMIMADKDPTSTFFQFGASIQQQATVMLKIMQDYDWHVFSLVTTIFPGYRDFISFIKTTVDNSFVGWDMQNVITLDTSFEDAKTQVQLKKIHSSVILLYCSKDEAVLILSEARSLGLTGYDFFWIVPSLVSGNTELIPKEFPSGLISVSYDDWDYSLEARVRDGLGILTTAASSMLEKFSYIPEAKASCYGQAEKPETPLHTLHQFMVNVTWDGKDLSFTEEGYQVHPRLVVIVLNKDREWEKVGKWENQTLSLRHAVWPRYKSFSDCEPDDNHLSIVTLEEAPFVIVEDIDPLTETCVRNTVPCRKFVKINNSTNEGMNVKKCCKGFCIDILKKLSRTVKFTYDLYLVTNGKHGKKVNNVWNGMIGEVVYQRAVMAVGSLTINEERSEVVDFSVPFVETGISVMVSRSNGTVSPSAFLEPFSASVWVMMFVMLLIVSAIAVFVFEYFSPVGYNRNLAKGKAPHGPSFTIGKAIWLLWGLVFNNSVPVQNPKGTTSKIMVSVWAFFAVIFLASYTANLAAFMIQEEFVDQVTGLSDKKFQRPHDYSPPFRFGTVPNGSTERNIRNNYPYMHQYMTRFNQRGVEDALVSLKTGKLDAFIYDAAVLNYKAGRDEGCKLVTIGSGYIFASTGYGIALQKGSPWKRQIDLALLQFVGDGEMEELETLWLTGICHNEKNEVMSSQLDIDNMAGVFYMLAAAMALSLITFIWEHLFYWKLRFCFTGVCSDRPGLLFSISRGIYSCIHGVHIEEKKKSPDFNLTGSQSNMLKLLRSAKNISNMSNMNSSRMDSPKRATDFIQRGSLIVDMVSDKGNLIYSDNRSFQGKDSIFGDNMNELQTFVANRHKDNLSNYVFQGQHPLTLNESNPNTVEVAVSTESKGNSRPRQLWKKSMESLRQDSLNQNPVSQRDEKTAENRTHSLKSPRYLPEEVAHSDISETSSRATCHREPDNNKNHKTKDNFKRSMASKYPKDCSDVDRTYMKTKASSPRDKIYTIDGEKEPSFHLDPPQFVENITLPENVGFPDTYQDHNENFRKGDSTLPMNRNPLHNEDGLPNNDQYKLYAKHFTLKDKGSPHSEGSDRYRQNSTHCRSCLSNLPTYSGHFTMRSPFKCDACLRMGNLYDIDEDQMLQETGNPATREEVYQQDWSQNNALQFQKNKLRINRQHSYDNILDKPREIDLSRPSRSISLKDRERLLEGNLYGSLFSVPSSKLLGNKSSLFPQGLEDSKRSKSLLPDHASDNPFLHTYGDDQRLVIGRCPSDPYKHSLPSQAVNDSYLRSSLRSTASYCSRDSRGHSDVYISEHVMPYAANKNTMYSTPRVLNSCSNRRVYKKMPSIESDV

`COc1ccc([C@H](O)C[C@H]2c3cc(OC)c(OC)cc3CCN2C)cc1`: in [1], the Binding stood at 34%. The molecule further gave a Ki in experiment [2] of 22 µM.

Regarding `COc1ccc([C@@H](O)C[C@H]2c3cc(OC)c(OC)cc3CCN2C)cc1`, the IC50 in [3] came to 341 µM; in experiment [4] it was 4.6 µM; in [5], 0.24 µM; in [6], 3.16 µM; in experiment [7], 107 µM; in [8], 155 µM. Besides, affinity in experiment [9] was put at a Ki of 2.7 µM.

For the molecule `COc1cc2c(cc1OC)[C@@H](C[C@@H](O)c1ccc(Cl)cc1)N(C)CC2`, the IC50 in experiment [4] is 56 µM; in experiment [5], 100 µM. The same molecule came in with an inhibitory constant (Ki) in experiment [9] of 0.007 µM.

`COc1ccc([C@@H](O)C[C@@H]2c3cc(OC)c(OC)cc3CCN2C)cc1` returned an IC50 in experiment [4] of 120 µM. Besides, the Binding in [1] was determined as 87%. In addition, the affinity in [9] corresponds to a Ki of 0.38 µM.

Turning to `COc1cc2c(cc1OC)[C@@H](C[C@H](O)c1ccc(Cl)cc1)NCC2`, the IC50 in experiment [4] was found to be 40 µM; in [5], 43 µM. This molecule also returned a Ki in experiment [9] of 6.7 µM.

For `COc1cc2c(cc1OC)[C@H](C[C@H](O)c1ccc(Cl)cc1)N(C)CC2`, the IC50 was 27.5 µM in experiment [3]; 0.96 µM in experiment [4]; 0.059 µM in [5]; 1.32 µM in experiment [6]; 137 µM in experiment [7]; 5.29 µM in experiment [8]. In addition, in [9], the Ki is 0.5 µM.

Consider `COc1ccc([C@@H](O)C[C@@H]2NCCc3cc(OC)c(OC)cc32)cc1`, for which the IC50 turned out to be 29 µM in experiment [4] and 14 µM in [5].

In the case of `COc1cc2c(cc1OC)[C@H](C[C@@H](O)c1ccc(Cl)cc1)NCC2`, the IC50 in [4] came out at 34 µM; in [5], 95 µM. In experiment [9], this molecule yielded an inhibitory constant (Ki) of 2.6 µM.

`COc1ccc([C@@H](O)C[C@H]2NCCc3cc(OC)c(OC)cc32)cc1`: the results for the IC50 in [10] and in experiment [4] were 420 µM and 140 µM, respectively. In [9], the inhibition constant Ki was 11 µM.

With `COc1cc2c(cc1OC)[C@@H](C[C@@H](O)c1ccc(Cl)cc1)NCC2`, the IC50 in [10] worked out at 290 µM; in experiment [4] it was 37 µM. Moreover, the Ki in experiment [9] was determined as 0.26 µM.

Turning to `COc1ccc([C@H](O)C[C@H]2NCCc3cc(OC)c(OC)cc32)cc1`, the IC50 in experiment [4] came out at 120 µM. In addition, the Binding in experiment [1] was 63%. Also, the Ki in experiment [9] came out at 0.72 µM.

On to `COc1cc2c(cc1OC)[C@H](C[C@H](O)c1ccc(Cl)cc1)NCC2`, for which the concentration for half-maximal inhibition (IC50) was determined as 48.4 µM in experiment [3]; 7.4 µM in experiment [4]; 1.1 µM in [5]; 10.5 µM in experiment [6]; 104 µM in experiment [7]; 24.9 µM in experiment [8]. In [9], this molecule came in with an inhibition constant (Ki) of 0.92 µM.

As for `COc1ccc([C@H](O)C[C@@H]2c3cc(OC)c(OC)cc3CCN2C)cc1`, the Binding in experiment [1] came out at 50%. In [9], this molecule yielded a Ki of 0.06 µM.

For the molecule `COc1ccc([C@H](O)C[C@@H]2NCCc3cc(OC)c(OC)cc32)cc1`, the half-inhibitory concentration (IC50) in [10] came out at 243 µM; in experiment [4], 110 µM. In addition, affinity in experiment [9] was put at a Ki of 5.8 µM.

Consider `COc1cc2c(cc1OC)[C@H](C[C@@H](O)c1ccc(Cl)cc1)N(C)CC2`, for which the IC50 was 45 µM in [4] and 52 µM in [5]. Further, the Ki in [9] is 2.7 µM.

As for `COc1cc2c(cc1OC)[C@@H](C[C@H](O)c1ccc(Cl)cc1)N(C)CC2`, the results for the half-inhibitory concentration (IC50) in experiment [4] and in experiment [5] were 31 µM and 24 µM, respectively. This molecule also gave a Ki in experiment [9] of 0.11 µM.
